Tested on: HN31 Head and Neck Cancer cell line
Experiment: MTT assay, Bouvardin with ionizing radiation, HN31 (treated on the same day)
Type: cell-based, human
Details: HN31 cells
Method: “Combination Index” computation. Combination Indices were calculated using CalcuSyn software (Biosoft), which uses the method of Chou and Talalay. This method first computes drug-induced effect using the Hill Equation: where E is the measured effect; C is the drug concentration; Emax is the full range of drug effect, usually at or near 100%; IC50 is the drug concentration producing the median effect of 50%; and n is the curve shape parameter describing the steepness of the concentration-effect relationship. The Chou and Talalay method then linearizes the Hill Equation by logarithmic transformation as: where fu is the fraction of cells left unaffected after drug exposure, fa is the fraction of cells affected by the exposure, C is the drug concentration used, Cm is the concentration to achieve the median effect, and n is the curve shape parameter. Cm and n are equivalent to IC50 and n, respectively, in the Hill Equation. The values of n (obtained from the slope), nlog(Cm) (obtained from the absolute value of the intercept), and, therefore, Cm are obtained by plotting log(fu−1−1) versus log(C). These numbers are then used to compute the Combination Index (CI) according to the formula: CI=(D)1/(Dx)1+(D)2/(Dx)2 (26). (Dx)1 and (Dx)2 are the doses required to achieve a given effect level for each treatment, i.e. a specified value of Fraction Affected or Fa. (D)1 and (D)2 are the doses of each treatment in a given combination which gives the same Fa.
The growth inhibitory effects of Bouvardin with ionizing radiation (IR) were evaluated using a modified tetrazolium salt (MTT) assay. In the MTT assay, 1,000 to 2,000 viable cells were plated in 100 uL of growth medium in 96-well plates (Corning, Ithaca, N.Y.). Following an overnight incubation, drug was added in varying concentrations and the plates were irradiated on the same day (co-treatment) or 24 hr later (pre-treatment) and incubated for 6 to 7 days. The tetrazolium salt was added at a concentration of 0.4 mg/mL to each well following the 6- to 7-day treatment. The plates were incubated with the salt for 4 hours at 37° C. At 4 hours, the medium was aspirated off, leaving the dark blue formazan product at the bottom of the wells. The reduced MTT product was solubilized by adding […] of 0.2 N HCl in 75% isopropanol, 23% MilliQ water to each well. Thorough mixing was done using a Titertek multichannel pipetman. The absorbency of each well was measured using an automated plate reader (Molecular Devices, Sunnyvale, Calif.). All experiments were done in triplicate.
MTT assays were used to determine the effect of Bouvardin (concentrations in uM) in combination with ionizing radiation (in Gy, X-axis). FIG. 14 depicts CI values for Bouvardin and radiation on 3 cell lines. Combination Index data from 3 different Head and Neck Cancer cell lines are shown. Black dashed lines represent a CI value of 1. CI values below 1 indicate synergy. 1586 and UM-SCC19 were pre-treated whereas HN31 was treated on the same day.

With `COc1ccc(C[C@H]2C(=O)N[C@H](C)C(=O)N(C)[C@@H]3C(=O)N(C)[C@@H](Cc4ccc(O)c(c4)Oc4ccc(cc4)[C@H]3O)C(=O)N[C@@H](C)C(=O)N[C@H](C)C(=O)N2C)cc1` (stereo in doubt) [Bouvardin, bouvardin] the “Combination Index” value (Bouvardin 0.001 uM + 1 Gy IR) was 4.673, the “Fraction Affected” value (Bouvardin 0.001 uM + 1 Gy IR) was 0.165 and the “Combination Index” value (Bouvardin 0.001 uM + 2 Gy IR) was 1.605. The “Fraction Affected” value (Bouvardin 0.001 uM + 2 Gy IR) was 0.292, the “Combination Index” value (Bouvardin 0.001 uM + 4 Gy IR) was 0.989 and the “Fraction Affected” value (Bouvardin 0.001 uM + 4 Gy IR) was 0.478. For the same compound, the “Combination Index” value (Bouvardin 0.003 uM + 1 Gy IR) was 1.405, the “Fraction Affected” value (Bouvardin 0.003 uM + 1 Gy IR) was 0.362 and the “Combination Index” value (Bouvardin 0.003 uM + 2 Gy IR) was 0.877. The “Fraction Affected” value (Bouvardin 0.003 uM + 2 Gy IR) was 0.463, the “Combination Index” value (Bouvardin 0.003 uM + 4 Gy IR) was 0.93 and the “Fraction Affected” value (Bouvardin 0.003 uM + 4 Gy IR) was 0.535. For the same compound, the “Combination Index” value (Bouvardin 0.006 uM + 1 Gy IR) was 0.462, the “Fraction Affected” value (Bouvardin 0.006 uM + 1 Gy IR) was 0.574 and the “Combination Index” value (Bouvardin 0.006 uM + 2 Gy IR) was 0.517. The “Fraction Affected” value (Bouvardin 0.006 uM + 2 Gy IR) was 0.602, the “Combination Index” value (Bouvardin 0.006 uM + 4 Gy IR) was 1.005 and the “Fraction Affected” value (Bouvardin 0.006 uM + 4 Gy IR) was 0.559. The “Combination Index” value (Bouvardin 0.01 uM + 1 Gy IR) was 0.401, the “Fraction Affected” value (Bouvardin 0.01 uM + 1 Gy IR) was 0.731 and the “Combination Index” value (Bouvardin 0.01 uM + 2 Gy IR) was 0.419. The “Fraction Affected” value (Bouvardin 0.01 uM + 2 Gy IR) was 0.747, the “Combination Index” value (Bouvardin 0.01 uM + 4 Gy IR) was 0.657 and the “Fraction Affected” value (Bouvardin 0.01 uM + 4 Gy IR) was 0.73. For the same compound, the “Combination Index” value (Bouvardin 0.03 uM + 1 Gy IR) was 0.565, the “Fraction Affected” value (Bouvardin 0.03 uM + 1 Gy IR) was 0.753 and the “Combination Index” value (Bouvardin 0.03 uM + 2 Gy IR) was 0.471. The “Fraction Affected” value (Bouvardin 0.03 uM + 2 Gy IR) was 0.782, the “Combination Index” value (Bouvardin 0.03 uM + 4 Gy IR) was 1.099 and the “Fraction Affected” value (Bouvardin 0.03 uM + 4 Gy IR) was 0.717. For the same compound, the “Combination Index” value (Bouvardin 0.06 uM + 1 Gy IR) was 0.663, the “Fraction Affected” value (Bouvardin 0.06 uM + 1 Gy IR) was 0.778 and the “Combination Index” value (Bouvardin 0.06 uM + 2 Gy IR) was 0.673. For the same compound, the “Fraction Affected” value (Bouvardin 0.06 uM + 2 Gy IR) was 0.785, the “Combination Index” value (Bouvardin 0.06 uM + 4 Gy IR) was 1.086 and the “Fraction Affected” value (Bouvardin 0.06 uM + 4 Gy IR) was 0.756. The “Combination Index” value (Bouvardin 0.1 uM + 1 Gy IR) was 0.97, the “Fraction Affected” value (Bouvardin 0.1 uM + 1 Gy IR) was 0.825 and the “Combination Index” value (Bouvardin 0.1 uM + 2 Gy IR) was 1.673. For the same compound, the “Fraction Affected” value (Bouvardin 0.1 uM + 2 Gy IR) was 0.789, the “Combination Index” value (Bouvardin 0.1 uM + 4 Gy IR) was 1.914 and the “Fraction Affected” value (Bouvardin 0.1 uM + 4 Gy IR) was 0.784. The “Combination Index” value (Bouvardin 0.3 uM + 1 Gy IR) was 1.563, the “Fraction Affected” value (Bouvardin 0.3 uM + 1 Gy IR) was 0.837 and the “Combination Index” value (Bouvardin 0.3 uM + 2 Gy IR) was 1.911. The “Fraction Affected” value (Bouvardin 0.3 uM + 2 Gy IR) was 0.826, the “Combination Index” value (Bouvardin 0.3 uM + 4 Gy IR) was 2.897 and the “Fraction Affected” value (Bouvardin 0.3 uM + 4 Gy IR) was 0.8. The “Combination Index” value (Bouvardin 0.6 uM + 1 Gy IR) was 2.067, the “Fraction Affected” value (Bouvardin 0.6 uM + 1 Gy IR) was 0.85 and the “Combination Index” value (Bouvardin 0.6 uM + 2 Gy IR) was 2.148. For the same compound, the “Fraction Affected” value (Bouvardin 0.6 uM + 2 Gy IR) was 0.849, the “Combination Index” value (Bouvardin 0.6 uM + 4 Gy IR) was 4.862 and the “Fraction Affected” value (Bouvardin 0.6 uM + 4 Gy IR) was 0.797. The “Combination Index” value (Bouvardin 1 uM + 1 Gy IR) was 4.673, the “Fraction Affected” value (Bouvardin 1 uM + 1 Gy IR) was 0.165 and the “Combination Index” value (Bouvardin 1 uM + 2 Gy IR) was 1.605. The “Fraction Affected” value (Bouvardin 1 uM + 2 Gy IR) was 0.292, the “Combination Index” value (Bouvardin 1 uM + 4 Gy IR) was 0.989 and the “Fraction Affected” value (Bouvardin 1 uM + 4 Gy IR) was 0.478.

From US20150343016A1, “CHEMICAL ENTITIES AND THERAPEUTIC USES THEREOF” (The Regents of the University of Colorado, a body corporate, priority 2010, published 2015)
